# In US10588280B2, “Aided delivery of plant treatment agents” (Monsanto Technology LLC, priority 2014, dated 2020):
# Test system: haploid seedlings derived from 91DUQ1 or 83IDI1
# Experiment: Example 7: serial centrifugation with colchicine at three growth stages (FIG. 4)
# Type: in vivo, maize
# Conditions: 1250 ppm colchicine, submerged 50 g 3 min then unsubmerged 335 g 3 min, ear with at least four kernels
# Source text: Three different growth stages and the effects on DH-related success indicators between the three life stages were compared.
# F1 hybrid-derived haploid seedlings derived from either female inbred line 91DUQ1 or male inbred line 83IDI1 were germinated in soil in a greenhouse in standard maize growing conditions. To ensure that the older seedlings would fit into the centrifuge sample container, and to ensure that all seedlings received the same chemical treatments, all seedlings were subjected to a 1% paclobutrazol (PBZ) soil drench treatment at 6 days after planting, 10 ml per plant.
# This population of seedlings was subdivided into 3 samples, each comprising several dozen seedlings. Half of the seedlings in each sample were derived from 91DUQ1 and the other half derived from 83IDI1. A first sample was removed from the soil at the V1-V2 growth stage (1 week after planting), a second sample removed from the soil at the V3-V4 stage (2 weeks after planting) and a third sample removed from the soil at the V4-V5 growth stage (3 weeks after planting).
# Following removal from the soil, seedlings in each sample were rinsed in water to remove residual soil, then wrapped in a PCS along with several wooden rods, similar that that shown in FIG. 9, and subjected to a first submerged centrifugation in 1250 ppm colchicine at 50 g for 3 min.
# Following the first, submerged centrifugation, the plant treatment solution was decanted. The seedlings, with some residual agent clinging to their surfaces, were returned to the empty centrifuge container and subjected to a unsubmerged centrifugation at 335 g for 3 min. […]
# Self-pollinations were attempted with each plant that survived the treatment to produce pollen and silks and during the ensuing growth the pollination success, fertilization success and final doubling efficiency were determined within each sample. In this experiment, the doubling efficiency within each growth stage sample was calculated by dividing the number of plants that produced at least one ear comprising at least four kernels by the total number of plants treated.
smiles,measurement,setting,value
COc1cc2c(c(OC)c1OC)-c1ccc(OC)c(=O)cc1[C@@H](NC(C)=O)CC2 [colchicine],DE,V1-V2 growth stage,over 70%
same,"doubling efficiency, average",V4-V5 growth stage,~30%
same,"doubling efficiency, median",V4-V5 growth stage,36.7%
